Results published in publication PMC12096834, “Antimicrobial peptide plectasin recombinantly produced in Escherichia coli disintegrates cell walls of gram-positive bacteria, as proven by transmission electron and atomic force microscopy” (Journal of Bacteriology, 2025).
Read-outs that look alike come from different tables or passages of the source.

Assays:
[1] = type: physicochemical
Procedure: IMAC elution buffer was exchanged five times against PBS (137 mM NaCl, […], 2.7 mM KCl, and pH 7.4) with nominal 3 kDa cut-off in Amicon Ultra spin vials (Merck, Darmstadt, Germany). The buffer was exchanged discontinuously until the imidazole concentration was below 10 mM. To prevent loss in the form of precipitated plectasin, the CASPON-plectasin was diluted with PBS to a final concentration of 3.2 mg/mL.
The buffer exchanged solution was treated by digesting CASPON-plectasin, using a 1:100 (mol/mol) dilution of the CASPON enzyme per peptide at 37°C for 12 hours. To prevent caspase oxidation and to facilitate the cleavage process, dithiothreitol (DTT) was added to a final concentration of 1 mM DTT. The temperature was maintained by using an Eppendorf Thermoblock (Hamburg, Germany). The CASPON enzyme is a modification of T7AC-6H cpCasp2, which is described by Cserjan-Puschmann et al. ([28]).
The same RP-HPLC method described by Müller et al. ([24]) was employed for CASPON-plectasin/plectasin quantification. For CASPON-plectasin and plectasin, the concentrations 1, 0.5, 0.25, 0.125, and 0.0625 g/L were utilized to construct the calibration curve.
1.6 CASPON®-plectasin cleavage conditions […]
plectasin is limited to […].
Figure S5 Cleavage experiment using CASPON®-plectasin to examine the potential cleavage of plectasin. The calculated possible plectasin was based on the used CASPON®-plectasin mass (4 g/L), assuming no losses and employing stoichiometric principles.
The temperature and CASPONT® enzyme ratio (C. R.) were varied for the cleavage process. […]
the highest achievable plectasin concentration was 1.6 g/L. This outcome is consistent with the findings of a previous study (Mygind et al. 2005), which postulated that the solubility maximum of plectasin is approximately 1.6 g/L. However, an increase in DTT beyond this concentration […]
(1 picture or pasted object on this page, not shown here)

Streptococcus pneumoniae = test: TEM quantification of cells with visible damage; type: cell-based
Procedure: (§1) Suspensions of gram-positive bacteria were prepared by taking bacterial colonies out of overnight grown agar plates and resuspending them in MHB. The suspension was set to an OD625 extinction of 0.15–0.20 corresponding to a bacterial cell density of approximately 2 × 10^8 CFU/mL. Then, 3 × 1 mL of suspension was transferred into a 2-mL reaction tube and mixed with either plectasin, CASPON-plectasin, or PBS buffer to obtain volume conditions. The concentration for plectasin was 4 x MIC, and CASPON-plectasin was of the same molar quantity as plectasin. After incubation, the bacterial suspensions were washed with PBS three times, using mild centrifugation conditions for each wash cycle (3,000 g, 15 minutes) to avoid cell damage. Prior to sample preparation, mesh copper grids were pretreated with pioloform film and a thin carbon layer. Additionally, the grids were plasma-cleaned for 10 seconds. All samples were prepared by a negative staining procedure. Sample droplets were placed on copper grids for 10 minutes. Afterward, the grids were placed on a 2% glutaraldehyde in 0.1 M phosphate buffer, washed three times with HQ water, and stained with 1% uranyl acetate for 30 seconds. Grids were then analyzed in the TEM FEI Tecnai G^2 200 kV (Thermo Fisher Scientific, Waltham, MA) under high vacuum with 160 kV. For quantification, each condition (untreated, plectasin-treated, and CASPON-plectasin-treated) and each bacterial strain (the four mentioned above) were analyzed using two independent grid squares per biological duplicate, thus yielding a total of four grid squares per condition. Grid squares comprising ≥11 cells were selected for analysis, and the cells were counted and categorized as “no visible damage” or “visible damage”. Percentages and standard deviations were subsequently calculated for each condition. An example of counting the cells can be found in the supplementary material (Fig. S2).

Staphylococcus aureus = test: TEM quantification of cells with visible damage; type: cell-based
Procedure: as §1

Listeria monocytogenes = test: TEM quantification of cells with visible damage; type: cell-based
Procedure: as §1

Enterococcus faecalis = test: TEM quantification of cells with visible damage; type: cell-based
Procedure: as §1

[2] = published findings; 59 (Mygind et al. 2005); cited from earlier work

CC[C@H](C)[C@@H]1NC(=O)[C@H](CO)NC(=O)[C@H](CCCCN)NC(=O)[C@@H]2CSSC[C@@H](C(=O)N[C@@H](Cc3ccc(O)cc3)C(=O)O)NC(=O)[C@H](CCCCN)NC(=O)[C@@H]3CSSC[C@H](NC(=O)[C@H](CCC(N)=O)NC(=O)[C@H](CCSC)NC(=O)[C@H](CC(=O)O)NC(=O)[C@H](CC(=O)O)NC(=O)[C@H](CCC(=O)O)NC(=O)[C@H](CC(=O)O)NC(=O)[C@H](Cc4c[nH]c5ccccc45)NC(=O)[C@@H]4CCCN4C(=O)CNC(=O)[C@H](CC(N)=O)NC(=O)[C@@H](NC(=O)CNC(=O)[C@H](Cc4ccccc4)NC(=O)CN)CSSC[C@H](NC(=O)[C@H](Cc4ccc(O)cc4)NC(=O)CNC(=O)CNC(=O)[C@H](CCCCN)NC(=O)[C@H](Cc4ccc(O)cc4)NC(=O)CNC(=O)[C@H](CCCCN)NC1=O)C(=O)N[C@@H](C)C(=O)N[C@@H](CCCCN)C(=O)NCC(=O)NCC(=O)N[C@@H](Cc1ccccc1)C(=O)N[C@@H](C(C)C)C(=O)N3)C(=O)N[C@@H](Cc1c[nH]cn1)C(=O)N[C@@H](CC(N)=O)C(=O)N[C@@H](Cc1c[nH]cn1)C(=O)N2 [Plectasin, plectasin]
highest achievable plectasin concentration after CASPON-tag cleavage ([1]; any selected cleavage condition (temperature and CASPON enzyme ratio varied), without DTT, from 4 g/L CASPON-plectasin, preliminary experiments, Fig. S5): 1.5 g/L
solubility of plectasin ([1]; in the CASPON enzyme-based tag removal step (PBS pH 7.4, 37°C)): ~ 1.6 g/L
highest achievable plectasin concentration after CASPON-tag cleavage ([1]; with 1 mM DTT as supporting agent, Fig. S6): 1.6 g/L
No visible damage (%) (Streptococcus pneumoniae; Grid Square 1): 11.11%
Visible damage (%) (Streptococcus pneumoniae; Grid Square 1): 88.89%
No visible damage (%) (Streptococcus pneumoniae; Grid Square 2): 16.22%
Visible damage (%) (Streptococcus pneumoniae; Grid Square 2): 83.78%
No visible damage (%) (Streptococcus pneumoniae; Grid Square 3): 13.33%
Visible damage (%) (Streptococcus pneumoniae; Grid Square 3): 86.67%
No visible damage (%) (Streptococcus pneumoniae; Grid Square 4): 8.33%
Visible damage (%) (Streptococcus pneumoniae; Grid Square 4): 91.67%
cells with visible damage (Streptococcus pneumoniae; negative staining, plectasin 4 x MIC, CASPON-plectasin same molar quantity, mean ± SD of four grid squares (two biological replicates), untreated 15.20, SD): 87.75% ± 2.90%
cells with no visible damage (Streptococcus pneumoniae; negative staining, plectasin 4 x MIC, CASPON-plectasin same molar quantity, mean ± SD of four grid squares, untreated 84.80% ± 3.71%): 12.25%
No visible damage (%) (Staphylococcus aureus; Grid Square 1): 7.69%
Visible damage (%) (Staphylococcus aureus; Grid Square 1): 92.31%
No visible damage (%) (Staphylococcus aureus; Grid Square 2): 16.67%
Visible damage (%) (Staphylococcus aureus; Grid Square 2): 83.33%
No visible damage (%) (Staphylococcus aureus; Grid Square 3): 5.88%
Visible damage (%) (Staphylococcus aureus; Grid Square 3): 94.12%
No visible damage (%) (Staphylococcus aureus; Grid Square 4): 11.76%
Visible damage (%) (Staphylococcus aureus; Grid Square 4): 88.24%
cells with visible damage (Staphylococcus aureus; negative staining, plectasin 4 x MIC, CASPON-plectasin same molar quantity, mean ± SD of four grid squares (two biological replicates), untreated 10.10, SD): 89.50% ± 4.15%
cells with no visible damage (Staphylococcus aureus; negative staining, plectasin 4 x MIC, CASPON-plectasin same molar quantity, mean ± SD of four grid squares, untreated 89.90% ± 4.88%): 10.50%
No visible damage (%) (Listeria monocytogenes; Grid Square 1): 9.09%
Visible damage (%) (Listeria monocytogenes; Grid Square 1): 90.91%
No visible damage (%) (Listeria monocytogenes; Grid Square 2): 34.48%
Visible damage (%) (Listeria monocytogenes; Grid Square 2): 65.52%
No visible damage (%) (Listeria monocytogenes; Grid Square 3): 18.18%
Visible damage (%) (Listeria monocytogenes; Grid Square 3): 81.82%
No visible damage (%) (Listeria monocytogenes; Grid Square 4): 18.75%
Visible damage (%) (Listeria monocytogenes; Grid Square 4): 81.25%
cells with visible damage (Listeria monocytogenes; negative staining, plectasin 4 x MIC, CASPON-plectasin same molar quantity, mean ± SD of four grid squares (two biological replicates), untreated 6.97, SD): 79.87% ± 9.13%
cells with no visible damage (Listeria monocytogenes; negative staining, plectasin 4 x MIC, CASPON-plectasin same molar quantity, mean ± SD of four grid squares, untreated 93.03% ± 4.81%): 20.13%
No visible damage (%) (Enterococcus faecalis; Grid Square 1): 29.41%
Visible damage (%) (Enterococcus faecalis; Grid Square 1): 70.59%
No visible damage (%) (Enterococcus faecalis; Grid Square 2): 28.57%
Visible damage (%) (Enterococcus faecalis; Grid Square 2): 71.43%
No visible damage (%) (Enterococcus faecalis; Grid Square 3): 21.05%
Visible damage (%) (Enterococcus faecalis; Grid Square 3): 78.95%
No visible damage (%) (Enterococcus faecalis; Grid Square 4): 27.78%
Visible damage (%) (Enterococcus faecalis; Grid Square 4): 72.22%
cells with visible damage (Enterococcus faecalis; negative staining, plectasin 4 x MIC, CASPON-plectasin same molar quantity, mean ± SD of four grid squares (two biological replicates), untreated 4.07, SD): 73.30% ± 3.31%
cells with no visible damage (Enterococcus faecalis; negative staining, plectasin 4 x MIC, CASPON-plectasin same molar quantity, mean ± SD of four grid squares, untreated 95.93% ± 2.41%): 26.70%
maximum solubility of plectasin [2]: ~ 1.6 g/L
